Measured values from US12037329B2, “SphK inhibitors and methods of making and using same” (Washington University, priority 2021, dated 2024).
Entries after “also recorded” stand apart in the source; their conditions may differ. Where a name gives a salt, the structure may show the parent alone. Read-outs that look alike come from different tables or passages of the source.

Key:
SphK2 [1] = biological target: T1, SphK2 (Homo sapiens (Human), UniProt Q9NRA0); test: ADP-Glo kinase assay, SphK2; assay type: biochemical; conditions: for IC50: ADP-Glo assay, 50 μM ATP, recombinant human SphK2; for selectivity/specificity for SphK2 over SphK1: 125 μM of each compound, SphK2 versus SphK1, FIG. 5
Source text: The bioluminescence-based kinase assay such as ADP-Glo assay measures ADP formed from a kinase reaction with a luciferase. Upon the completion of a kinase reaction, the remaining ATP is depleted, the ADP produced in the kinase reaction is then converted to ATP and the detection is based on a sensitive and robust bioluminescence reaction. It has a broad linear range of ATP concentrations and high dynamic range. To determine the inhibition activity of the compounds, the ADP-Glo kinase assay was used which was able to detect down to 20% of 1 μM ATP to ADP conversion (FIG. 4A).
ADP-Glo (Promega, Madison, WI) kinase assay were used to evaluate the kinase activity of SphK. ATP to ADP standard curves were prepared in the kinase buffer to assess the linearity of the assay in order to calculate the amount of ADP produced in each tested conditions (FIG. 4A). SB10 (tenfold signal to background ra-tio) of SphK was also determined to evaluate the enzyme perfor-mance and to optimize the kinase reaction condition in this system. In brief, for SphK2, […], 100 μM of D-erythro-Sphingosine (Tocris Bioscience, Minneapolis, MN), and 2 ng of recombinant human SphK2 (R&D Systems, Minneapolis, MN) with desired concentration of each synthesized compound were used for SphK2 kinase reaction. For SphK1, exact same reaction condition was used except 0.5 ng of recombinant human SphK1 was used.
To evaluate the SphK selectivity of each compound, 125 μM of each compound in reaction buffer ([…] Tris, pH 8.0, […] MgCl2, and 0.1 mg/mL BSA) with 5% DMSO was incubated with either SphK1 or SphK2 in a 384-well solid white low volume microplate (Corning, Corning, NY), and the reaction was initiated by adding mixture of ATP and D-erythro-Sphingosine to a total volume of 5 μL, after 1 h incubation at room temperature with gentle shaking, the reaction was stopped by adding equal volume of ADP-Glo buffer and incubated for another hour to remove excess amount of ATP from the reaction. Afterwards, 10 μL of kinase detection reagent was added, mixed, and incubated for 30 min under dark. Luminescence output was recorded using a SpectraMax M5 Multi-Mode Microplate Readers (Molecular Devices, San Jose, CA), an integration time of 500 ms was used. All reactions were performed in triplicate. The enzyme activity of SphK in the presence of each compound was normalized to the no treatment control. […] The final data was calculated using Prism 7.0 (GraphPad Software, La Jolla, CA), IC50 was determined using Nonlinear regression (curve fit) four parameters dose-response calculations.

SphK2 [2] = biological target: T1, SphK2; conditions: SphK2-selective inhibitors; cited from earlier work
U-251 MG cells = test: CellTiter96 MTS cell viability dose response, U-251 MG; assay type: cell-based, human; conditions: read-out: IC50 (cell viability)
Experimental: The anti-tumor activity of these inhibitors was further examined at different doses.
Cell viability was determined using CellTiter96 MTS Assay and compared to DMSO treated control cells. IC50 values were calculated by non-linear regression analysis of the dose-response curve using GraphPad Prism version 8.00 for Windows (GraphPad Software).

[3] = system: U-251 MG human glioblastoma cells; test: U-251 MG cell viability, Hoechst 33258/propidium iodide imaging, 125 μM, 24 h; assay type: cell-based
Experimental: Cells were seeded into a 96-well microplate (Corning, Corning, NY) at 3000 cells/well and incubated for approximately 16 h. […] Cells were imaged using MetaXpress High-Content Image Acquisition and Analysis Software 6.1 and ImageXpress Micro XLS Wide-field High-Content Analysis System (Molecular Devices, San Jose, CA). Images were taken with a Nikon 10 CFI Plan Fluor objective. For all samples, triplicated measurements were performed.

T1 sequence (Q9NRA0 whole entry): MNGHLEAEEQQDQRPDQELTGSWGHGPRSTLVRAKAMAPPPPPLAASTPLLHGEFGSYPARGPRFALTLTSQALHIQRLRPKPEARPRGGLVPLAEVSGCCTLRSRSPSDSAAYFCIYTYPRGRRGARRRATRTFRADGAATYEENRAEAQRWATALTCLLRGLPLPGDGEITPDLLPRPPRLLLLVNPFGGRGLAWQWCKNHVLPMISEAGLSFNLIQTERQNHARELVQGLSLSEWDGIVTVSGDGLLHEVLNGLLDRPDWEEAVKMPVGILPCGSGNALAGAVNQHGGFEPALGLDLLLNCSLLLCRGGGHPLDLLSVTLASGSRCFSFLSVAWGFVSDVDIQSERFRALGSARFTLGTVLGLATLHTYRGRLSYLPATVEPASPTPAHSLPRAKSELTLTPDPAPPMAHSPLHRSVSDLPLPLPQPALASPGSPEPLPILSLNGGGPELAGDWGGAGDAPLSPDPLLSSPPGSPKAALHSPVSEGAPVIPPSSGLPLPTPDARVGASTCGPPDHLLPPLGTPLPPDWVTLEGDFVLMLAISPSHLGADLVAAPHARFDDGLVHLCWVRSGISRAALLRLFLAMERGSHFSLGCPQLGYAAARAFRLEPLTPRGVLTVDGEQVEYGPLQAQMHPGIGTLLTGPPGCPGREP

N=C(N)N1CCC[C@H]1Cc1nc(-c2ccc(Nc3nc(-c4cccc(C(F)(F)F)c4)cs3)cc2)no1 [Compound 13, reference compound]
IC50 (SphK2 [1]): 280 nM
Ki (SphK2 [2]): 90 nM

Cl.N=C(N)N1CCC[C@H]1Cc1nc(-c2ccc(Cn3cc(-c4ccccc4)nn3)cc2)no1 [Compound 21a, (S)-2-((3-(4-((4-Phenyl-1H-1,2,3-triazol-1-yl)methyl)phenyl)-1,2,4-oxadiazol-5yl)methyl)pyrrolidine-1-carboximidamide hydrochloride]
IC50 (SphK2 [1]): 396 nM
IC50 (U-251 MG cells; Homo sapiens, U-251, 72 h): 17000 nM
antitumor activity / reduction of U-251 MG cell viability (in words) ([3]; hydrochloride): high anti-tumor activity; also recorded: significant reduction

Cl.N=C(N)N1CCC[C@H]1Cc1nc(-c2ccc(Cn3cc(-c4ccccn4)nn3)cc2)no1 [Compound 21c, (S)-2-((3-(4-((4-(Pyridin-2-yl)-1H-1,2,3-triazol-1-yl)methyl)phenyl)-1,2,4-oxadiazol-5-yl)methyl)pyrrolidine-1-carboximidamide hydrochloride]
selectivity/specificity for SphK2 over SphK1 (SphK2 [1]; hydrochloride): high selectivity; also recorded: highest specificity
IC50 (SphK2 [1]): 452 nM

CCCCc1cn(Cc2ccc(-c3noc(C[C@@H]4CCCN4C(=N)N)n3)cc2)nn1.Cl [Compound 21d, (S)-2-((3-(4-((4-Butyl-1H-1,2,3-triazol-1-yl)methyl)phenyl)-1,2,4-oxadiazol-5-yl)methyl)pyrrolidine-1-carboximidamide hydrochloride]
SphK2 inhibitory activity (in words) (SphK2 [1]): no inhibitory activity
selectivity/specificity for SphK2 over SphK1 (SphK2 [1]; hydrochloride): lowest specificity; also recorded: no selectivity

COc1ccc(-c2cn(Cc3ccc(-c4noc(C[C@@H]5CCCN5C(=N)N)n4)cc3)nn2)cc1.Cl [Compound 21e, (S)-2-((3-(4-((4-(4-Methoxyphenyl)-1H-1,2,3-triazol-1-yl)methyl)phenyl)-1,2,4-oxadiazol-5-yl)methyl)pyrrolidine-1-carboximidamide hydrochloride]
selectivity/specificity for SphK2 over SphK1 (SphK2 [1]; hydrochloride): high selectivity; also recorded: highest specificity
IC50 (SphK2 [1]): 640 nM
antitumor activity / reduction of U-251 MG cell viability (in words) [3]: comparable reduction

Cl.N=C(N)N1CCC[C@H]1Cc1nc(-c2ccc(Cn3cc(C4CC4)nn3)cc2)no1 [Compound 21f, (S)-2-((3-(4-((4-Cyclopropyl-1H-1,2,3-triazol-1-yl)methyl)phenyl)-1,2,4-oxadiazol-5-yl)methyl)pyrrolidine-1-carboximidamide hydrochloride]
SphK2 inhibitory activity (in words) (SphK2 [1]): no inhibitory activity
selectivity/specificity for SphK2 over SphK1 (SphK2 [1]; hydrochloride): lowest specificity; also recorded: no selectivity

Cl.Cn1cc(-c2cn(Cc3ccc(-c4noc(C[C@@H]5CCCN5C(=N)N)n4)cc3)nn2)cn1 [Compound 21g, (S)-2-((3-(4-((4-(1-Methyl-1H-pyrazol-4-yl)-1H-1,2,3-triazol-1-yl)methyl)phenyl)-1,2,4-oxadiazol-5-yl)methyl)pyrrolidine-1-carboximidamide hydrochloride]
selectivity/specificity for SphK2 over SphK1 (SphK2 [1]; hydrochloride): high selectivity; also recorded: highest specificity
IC50 (SphK2 [1]): 234 nM

Cl.N=C(N)N1CCC[C@H]1c1nc(-c2ccc(Cn3cc(-c4ccc(C(F)(F)F)cc4)nn3)cc2)no1 [Compound 25b, (S)-2-((3-(4-((4-(4-(Trifluoromethyl)phenyl)-1H-1,2,3-triazol-1-yl)methyl)phenyl)-1,2,4-oxadiazol-5-yl)pyrrolidine-1-carboximidamide hydrochloride]
IC50 (SphK2 [1]): 359 nM
IC50 (U-251 MG cells; U-251 MG cells, 72 h, MTS): 12300 nM

Cl.N=C(N)N1CCC[C@H]1c1nc(-c2ccc(Cn3cc(-c4ccc(C(F)(F)F)cc4)nn3)cc2)no1 [Compound 25b]
antitumor activity / reduction of U-251 MG cell viability (in words) ([3]; hydrochloride): high anti-tumor activity; also recorded: higher antitumor activity; also recorded: tremendously decreased; also recorded: significant reduction

Cl.N=C(N)N1CCC[C@H]1c1nc(-c2ccc(Cn3cc(-c4ccccn4)nn3)cc2)no1 [Compound 25c, (S)-2-(3-(4-((4-(Pyridin-2-yl)-1H-1,2,3-triazol-1-yl)methyl)phenyl)-1,2,4-oxadiazol-5-yl)pyrrolidine-1-carboximidamide hydrochloride]
selectivity/specificity for SphK2 over SphK1 (SphK2 [1]): lowest specificity
IC50 (SphK2 [1]; hydrochloride): 900 nM

COc1ccc(-c2cn(Cc3ccc(-c4noc([C@@H]5CCCN5C(=N)N)n4)cc3)nn2)cc1.Cl [Compound 25d, (S)-2-((3-(4-((4-(4-Methoxyphenyl)-1H-1,2,3-triazol-1-yl)methyl)phenyl)-1,2,4-oxadiazol-5-yl)-pyrrolidine-1-carboximidamide hydrochloride]
IC50 (SphK2 [1]): 266 nM
IC50 (U-251 MG cells; U-251 MG cells, 72 h, MTS): 78200 nM

COc1ccc(-c2cn(Cc3ccc(-c4noc([C@@H]5CCCN5C(=N)N)n4)cc3)nn2)cc1.Cl [Compound 25d]
antitumor activity / reduction of U-251 MG cell viability (in words) [3]: comparable reduction

N=C(N)N1CCC[C@H]1c1nc(-c2ccc(Cn3cc(-c4cccs4)nn3)cc2)no1 [Compound 25e, (S)-2-((3-(4-((4-(Thiophen-2-yl)-1H-1,2,3-triazol-1-yl)methyl)phenyl)-1,2,4-oxadiazol-5-yl)-pyrrolidine-1-carboximidamide hydrochloride]
IC50 (SphK2 [1]): 687 nM

CCCCc1cn(Cc2ccc(-c3noc([C@@H]4CCCN4C(=N)N)n3)cc2)nn1.Cl [Compound 25f, (S)-2-((3-(4-((4-Butyl-1H-1,2,3-triazol-1-yl)methyl)phenyl)-1,2,4-oxadiazol-5-yl)pyrrolidine-1-carboximidamide hydrochloride]
IC50 (SphK2 [1]): 254 nM

CCCCc1cn(Cc2ccc(-c3noc([C@@H]4CCCN4C(=N)N)n3)cc2)nn1.Cl [Compound 25f]
selectivity/specificity for SphK2 over SphK1 (SphK2 [1]): high selective

N=C(N)N1CCC[C@H]1c1nc(-c2ccc(Cn3cc(-c4ccc(F)cc4)nn3)cc2)no1 [Compound 25g, (S)-2-((3-(4-((4-(4-Fluorophenyl)-1H-1,2,3-triazol-1-yl)methyl)phenyl)-1,2,4-oxadiazol-5-yl)-pyrrolidine-1-carboximidamide hydrochloride]
IC50 (SphK2 [1]): 391 nM

Cl.N=C(N)N1CCC[C@H]1c1nc(-c2ccc(Cn3cc(C4CC4)nn3)cc2)no1 [Compound 25h, (S)-2-((3-(4-((4-Cyclopropyl-1H-1,2,3-triazol-1-yl)methyl)phenyl)-1,2,4-oxadiazol-5-yl)pyrrolidine-1-carboximidamide hydrochloride]
IC50 (SphK2 [1]): 248 nM

Cl.N=C(N)N1CCC[C@H]1c1nc(-c2ccc(Cn3cc(C4CC4)nn3)cc2)no1 [Compound 25h]
selectivity/specificity for SphK2 over SphK1 (SphK2 [1]): high selective

Cl.N=C(N)C1(c2nc(-c3ccc(Cn4cc(-c5ccccc5)nn4)cc3)no2)CC1 [Compound 29a, 1-(3-(4-((4-Phenyl-1H-1,2,3-triazol-1-yl)methyl)phenyl)-1,2,4-oxadiazol-5-yl)cyclopropanecarboximidamide hydrochloride]
selectivity/specificity for SphK2 over SphK1 (SphK2 [1]): highly selective
IC50 (SphK2 [1]): 261 nM

Cn1cc(-c2cn(Cc3ccc(-c4noc(C5(C(=N)N)CC5)n4)cc3)nn2)cn1 [Compound 29b, hydrochloride]
selectivity/specificity for SphK2 over SphK1 (SphK2 [1]): highly selective

Cn1nccc1-c1cn(Cc2ccc(-c3noc(C4(C(=N)N)CC4)n3)cc2)nn1 [Compound 29b, hydrochloride]
IC50 (SphK2 [1]): 269 nM

N=C(N)C1(c2nc(-c3ccc(Cn4cc(C5CC5)nn4)cc3)no2)CC1 [Compound 29c, 1-(3-(4-((4-Cyclopropyl-1H-1,2,3-triazol-1-yl)methyl)phenyl)-1,2,4-oxadiazol-5-yl)cyclopropanecarboximidamide hydrochloride]
IC50 (SphK2 [1]): 717 nM

ABC294640 [Compound 7, reference compound]
reduction of viability of U-251 MG cells ([3]; versus no treatment control): approximately 50%
